We go through 48 compounds from patent US8076324B2, “Di(hetero)arylcyclohexane derivatives, their preparation, their use and pharmaceutical compositions comprising them” (Sanofi-Aventis, priority 2007, dated 2011).

The target of the assay is T1, myocardial ATP-sensitive potassium channel (SUR2A/Kir6.2) (UniProt Q61743+Q63563).
T1 construct: expressed in transfected cells
Description: Rubidium efflux test on HEK293 cells transfected with SUR2A and Kir6.2 (myocardial action). It counts as cell-based, SUR2A from the rat, Kir6.2 from the mouse. The note with it: HEK293 cells transfected with SUR2A/Kir6.2; KATP channels opened by rilmakalim; 25 min incubation; read-out: IC50 values for the inhibition of the rubidium efflux. Here is the method: 1) Action on the SUR2A/Kir6.2 potassium channel (myocardial action) The action of the compounds on the ion transport through the myocardial ATP-sensitive potassium channel (SUR2A/Kir6.2) was determined in the rubidium efflux test system described below on human embryonic kidney cells HEK293 which were transfected with the components SUR2A and Kir6.2 (cf. Weyermann et al., Naunyn-Schmiedeberg's Arch. Pharmacol. 369, 374-381 (2004)).
The HEK293 cells were cultured at 37° C. in a humidified air atmosphere with 7% carbon dioxide in minimal essential medium with Earle's salts and L-glutamine (MEM, Gibco), which was supplemented with 10% fetal calf serum and zeozin (0.36 mg/ml) and geneticin (0.75 mg/ml). The transfection of the cells and the preparation of a cell line with stable expression of Kir6.2 from the mouse (accession number AF037313) and SUR2A from the rat (accession number D83598/L40624) were carried out as described in Giblin et al., J. Biol. Chem. 274, 22652-22659 (1999).
60 000 transfected cells per well were inoculated into a poly-D-lysine-coated 96-well microtiter plate (Greiner #650 201). After incubation for 24 h at 37° C., the cells were washed three times with buffer 1 (150 mM NaCl, 2 mM CaCl2, 0.8 mM NaH2PO4, 1 mM MgCl2, 5 mM glucose, 25 mM HEPES, pH=7.4). Subsequently, the buffer solution was replaced by 100 μl of rubidium loading buffer (buffer 1 with 5.4 mM RbCl) and the cells were incubated for a further 3 h at 37° C. The rubidium loading buffer was then removed by washing the cells three times with 200 μl each of potassium chloride wash buffer (buffer 1 with 5.4 mM KCl). After addition of the test substances (70 μl; dissolved in potassium chloride wash buffer with addition of DMSO), the KATP channels of the cells were opened by addition of 70 μl of rilmakalim (2 μM) (cf. Krause et al., Pflügers Arch. 429, 625-635 (1995)) and the cells were incubated at 37° C. for 25 min. Subsequently, the cell supernatants were transferred to a new 96-well microtiter plate and the cells were lyzed by addition of 200 μl of lysis buffer (buffer 1 with 1% Triton X-100). The concentrations of Rb^+ in the cell supernatant and in the cell lyzate were measured by means of atomic absorption spectroscopy using an Al 1200 apparatus (Aurora Instruments Ltd.).
The Rb^+ efflux rate was calculated as [Rb^+SN]/[Rb^+total], wherein [Rb^+SN] is the amount of Rb^+ in the cell supernatant and [Rb^+total] is the sum of the amounts of Rb^+ in the cell supernatant and cell lyzate. IC50 values for the inhibition of the rubidium efflux were calculated with the aid of the Hill equation.

T1 sequence (Q63563 whole entry): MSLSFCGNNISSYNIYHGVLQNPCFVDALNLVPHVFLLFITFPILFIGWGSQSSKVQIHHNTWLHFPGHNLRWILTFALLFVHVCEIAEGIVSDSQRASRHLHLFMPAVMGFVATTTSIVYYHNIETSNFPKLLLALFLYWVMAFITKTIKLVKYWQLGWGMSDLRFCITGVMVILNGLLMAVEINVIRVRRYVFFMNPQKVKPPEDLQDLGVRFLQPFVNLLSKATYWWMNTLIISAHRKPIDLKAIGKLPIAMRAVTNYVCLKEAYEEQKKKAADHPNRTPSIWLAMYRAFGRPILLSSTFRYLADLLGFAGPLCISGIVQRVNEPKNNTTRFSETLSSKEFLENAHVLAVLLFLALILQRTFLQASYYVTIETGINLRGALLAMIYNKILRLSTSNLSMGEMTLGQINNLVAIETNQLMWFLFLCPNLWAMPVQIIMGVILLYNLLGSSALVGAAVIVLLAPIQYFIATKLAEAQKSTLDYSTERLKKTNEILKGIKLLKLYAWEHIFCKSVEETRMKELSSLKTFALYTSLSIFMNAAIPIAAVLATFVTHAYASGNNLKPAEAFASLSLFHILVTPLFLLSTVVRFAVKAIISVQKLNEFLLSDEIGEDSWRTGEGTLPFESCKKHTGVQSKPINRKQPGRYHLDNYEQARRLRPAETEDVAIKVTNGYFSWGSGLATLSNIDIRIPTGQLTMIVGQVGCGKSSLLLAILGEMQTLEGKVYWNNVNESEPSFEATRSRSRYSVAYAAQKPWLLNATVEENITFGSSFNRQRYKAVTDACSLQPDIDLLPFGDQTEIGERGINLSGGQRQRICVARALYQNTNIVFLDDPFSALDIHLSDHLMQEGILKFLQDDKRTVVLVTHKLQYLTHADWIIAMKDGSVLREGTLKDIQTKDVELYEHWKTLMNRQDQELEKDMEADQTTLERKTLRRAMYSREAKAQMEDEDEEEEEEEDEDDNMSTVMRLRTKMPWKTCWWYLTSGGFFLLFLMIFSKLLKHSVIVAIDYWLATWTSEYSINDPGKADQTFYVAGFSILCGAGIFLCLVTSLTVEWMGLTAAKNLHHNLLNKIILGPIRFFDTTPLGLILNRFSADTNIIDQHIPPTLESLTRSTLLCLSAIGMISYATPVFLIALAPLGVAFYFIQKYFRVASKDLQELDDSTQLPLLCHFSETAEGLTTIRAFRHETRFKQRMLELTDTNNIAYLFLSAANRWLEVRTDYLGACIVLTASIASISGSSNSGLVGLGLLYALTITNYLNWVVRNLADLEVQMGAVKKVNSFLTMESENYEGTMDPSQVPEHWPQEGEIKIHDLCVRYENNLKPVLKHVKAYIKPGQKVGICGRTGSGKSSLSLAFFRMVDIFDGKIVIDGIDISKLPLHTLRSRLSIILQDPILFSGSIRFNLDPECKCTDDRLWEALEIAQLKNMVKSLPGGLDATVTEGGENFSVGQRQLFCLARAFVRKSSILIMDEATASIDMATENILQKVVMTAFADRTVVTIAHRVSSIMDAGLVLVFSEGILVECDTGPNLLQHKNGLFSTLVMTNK
T1 sequence (Q61743 whole entry): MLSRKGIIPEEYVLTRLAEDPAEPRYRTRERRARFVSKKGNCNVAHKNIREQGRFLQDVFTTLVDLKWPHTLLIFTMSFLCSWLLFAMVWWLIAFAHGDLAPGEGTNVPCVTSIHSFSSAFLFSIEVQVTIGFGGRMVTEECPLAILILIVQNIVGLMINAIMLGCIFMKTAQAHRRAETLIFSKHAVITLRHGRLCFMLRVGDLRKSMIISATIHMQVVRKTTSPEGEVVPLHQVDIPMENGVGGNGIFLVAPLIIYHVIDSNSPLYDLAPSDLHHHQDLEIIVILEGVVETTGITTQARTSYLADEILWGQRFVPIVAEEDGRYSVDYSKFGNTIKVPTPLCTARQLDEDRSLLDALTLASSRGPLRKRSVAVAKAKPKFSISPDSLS

Take `Cc1nc([C@]2(OCC3CC3)CC[C@](C(=O)O)(c3ccccc3)CC2)n(CC2CC2)c1Cl` [Example 382]: the IC50 (usually the concentration that inhibits the measured activity by half) is below 1 µM.
To `O=C(O)C1(c2ccccc2)CCC(O)(c2ccc(F)cc2)CC1` (stereo not drawn) [Example 93] belongs below 1 µM; to `O=C(O)C1(c2ccccc2)CCC(O)(c2ccc(F)cc2F)CC1` (stereo not drawn) [Example 95], below 1 µM.
The same measure for `COC1(c2ccc(C(F)(F)F)cc2)CCC(C(=O)O)(c2ccccc2)CC1` (stereo not drawn) [Example 124]: below 1 µM; for `COC1(c2ccc(SC)cc2)CCC(C(=O)O)(c2ccccc2)CC1` (stereo not drawn) [Example 163, 4-Methoxy-4-(4-methylsulfanylphenyl)-1-phenylcyclohexanecarboxylic Acid]: below 1 µM.
Consider `CCCOC1(c2cc(F)ccc2SC)CCC(C(=O)O)(c2ccc(F)cc2)CC1` (stereo not drawn) [Example 248], for which the IC50 was below 1 µM.
To `O=C(O)[C@]1(c2ccccc2)CC[C@@](OCC2CC2)(c2nc(C(F)(F)F)cn2CC2CC2)CC1` [Example 380] belongs below 1 µM; to `O=C(O)[C@]1(c2ccccc2)CC[C@](OCC2CC2)(c2nccn2CC2CC2)CC1` [Example 493, Trans-Cyclopropylmethoxy-4-(1-cyclopropylmethyl-1H-imidazol-2-yl)-1-phenylcyclohexanecarboxylic Acid], below 1 µM; to `CS(=O)(=O)c1ccc(-c2nc([C@]3(Oc4ccccc4)CC[C@@](C(=O)O)(c4ccccc4)CC3)n(CC3CC3)n2)cc1` [Example 467], below 1 µM.
To `CCOC1(c2ccc(F)cc2)CCC(C(=O)O)(c2ccccc2)CC1` (stereo not drawn) [Example 141] belongs below 1 µM; to `COC1(c2ccc(F)cc2)CCC(C(=O)O)(c2ccc(OC(F)(F)F)cc2)CC1` (stereo not drawn) [Example 236], below 1 µM.
For `CSc1ccc(F)cc1C1(OCC2CC2)CCC(C(=O)O)(c2ccc(F)cc2)CC1` (stereo not drawn) [Example 247], the IC50 was below 1 µM.
The same measure for `O=C(O)[C@]1(c2ccccc2)CC[C@](OCC2CC2)(c2nc3cc(Cl)ccc3n2CC2CC2)CC1` [Example 451]: below 1 µM; for `Cc1nc([C@]2(OCC3CC3)CC[C@@](C(=O)O)(c3ccc(F)cc3)CC2)n(CC2CC2)c1Br` [Example 369]: below 1 µM.
The same measure for `O=C(O)[C@]1(c2ccccc2)CC[C@@](OCC2CC2)(c2nc3cc(F)ccc3n2CC2CC2)CC1` [Example 452]: below 1 µM.
To `O=C(O)[C@]1(c2ccccc2)CC[C@@](OCC2CC2)(c2ccc(F)cn2)CC1` [Example 267, Cis-4-Cyclopropylmethoxy-4-(5-fluoropyridin-2-yl)-1-phenylcyclohexanecarboxylic Acid] belongs below 1 µM.
Turning to `O=C(O)[C@]1(c2ccccc2)CC[C@](OCC2CC2)(c2nc(C(F)(F)F)cn2CC2CC2)CC1` [Example 381], the IC50 is below 1 µM.
To `CS(=O)(=O)c1ccc(F)cc1C1(OCC2CC2)CCC(C(=O)O)(c2ccc(F)cc2)CC1` (stereo not drawn) [Example 258] belongs below 1 µM; to `COC1(c2cccc(F)c2)CCC(C(=O)O)(c2ccccc2)CC1` (stereo not drawn) [Example 119], below 1 µM.
The same measure for `O=C(O)C1(c2ccccc2)CCC(OCC2CC2)(c2ccc(-c3ccc(F)c(Br)c3)cc2)CC1` (stereo not drawn) [Example 275]: below 1 µM; for `C=Cc1ccccc1C1(OC)CCC(C(=O)O)(c2ccccc2)CC1` (stereo not drawn) [Example 135]: below 1 µM.
The same measure for `O=C(O)[C@]1(c2ccccc2)CC[C@@](OCC2CC2)(c2nc(Cl)c(Cl)n2CC2CC2)CC1` [Example 387]: below 1 µM.
Take `O=C(O)[C@]1(c2ccccc2)CC[C@](OCC2CC2)(c2ccnc(-c3ccccc3)c2)CC1` [Example 489, Trans-4-Cyclopropylmethoxy-1-phenyl-4-(2-phenylpyridin-4-yl)cyclohexanecarboxylic Acid]: the concentration for half-maximal inhibition (IC50) was below 1 µM.
For the compound `O=C(O)C1(c2ccccc2)CCC(O)(c2c(F)cc(F)cc2F)CC1` (stereo not drawn) [Example 98], the IC50 is below 1 µM.
To `O=C(O)[C@]1(c2ccccc2)CC[C@](OCC2CC2)(c2nc3cc(F)ccc3n2CC2CC2)CC1` [Example 453] belongs below 1 µM; to `O=C(O)[C@]1(c2ccc(F)cc2)CC[C@](Oc2ccccc2)(c2nc3ccccc3n2CC2CC2)CC1` [Example 406], below 1 µM; to `O=C(O)C1(c2ccc(F)cc2)CCC(OCC2CC2)(c2ccc(F)cc2)CC1` (stereo not drawn) [Example 249], below 1 µM.
To `COC1(c2ccc(C)c(F)c2)CCC(C(=O)O)(c2ccccc2)CC1` (stereo not drawn) [Example 123] belongs below 1 µM; to `CC(C)S(=O)(=O)c1cc(F)cc([C@]2(OCC3CC3)CC[C@](C(=O)O)(c3ccc(F)cc3)CC2)c1` [Example 304-1, Cis-4-Cyclopropylmethoxy-1-(4-fluorophenyl)-4-[3-fluoro-5-(propane-2-sulfonyl)phenyl]cyclohexanecarboxylic Acid], below 1 µM.
The same measure for `O=C(O)[C@]1(c2ccccc2)CC[C@@](OCC2CC2)(c2nccn2CC2CC2)CC1` [Example 492, Cis-Cyclopropylmethoxy-4-(1-cyclopropylmethyl-1H-imidazol-2-yl)-1-phenylcyclohexanecarboxylic Acid]: below 1 µM; for `Cc1c(Br)nc([C@]2(OCCC(C)C)CC[C@](C(=O)O)(c3ccccc3)CC2)n1CC1CC1` [Example 374]: below 1 µM; for `CCCOC1(c2ccccc2S(C)(=O)=O)CCC(C(=O)O)(c2ccccc2)CC1` (stereo not drawn) [Example 174]: below 1 µM.
As to `Cc1c(Cl)nc([C@]2(OCC3CC3)CC[C@](C(=O)O)(c3ccccc3)CC2)n1CC1CC1` [Example 383], the IC50 was below 1 µM.
The same measure for `O=C(O)C1(c2ccccc2)CCC(O)(c2ccc(Cl)c(C(F)(F)F)c2)CC1` (stereo not drawn) [Example 104]: below 1 µM; for `Cc1c(Br)nc([C@]2(OCC3CC3)CC[C@](C(=O)O)(c3ccccc3)CC2)n1CC1CC1` [Example 373]: below 1 µM.
As to `Cc1nc([C@]2(OCC3(C)COC3)CC[C@](C(=O)O)(c3ccccc3)CC2)n(CC2CC2)c1Cl` [Example 385], the IC50 is below 1 µM.
The same measure for `O=C(O)C1(c2ccccc2)CCC(O)(c2ccc(C(F)(F)F)cc2F)CC1` (stereo not drawn) [Example 103]: below 1 µM; for `COC1(c2ccc(F)cc2)CCC(C(=O)O)(c2cccc(OC(F)(F)F)c2)CC1` (stereo not drawn) [Example 237]: below 1 µM.
To `Cc1c(F)cc([C@]2(OCC3CC3)CC[C@](C(=O)O)(c3ccc(F)cc3)CC2)cc1S(=O)(=O)C(C)C` [Example 304-4, Cis-4-Cyclopropylmethoxy-4-[3-fluoro-4-methyl-5-(propane-2-sulfonyl)phenyl]-1-(4-fluorophenyl)cyclohexanecarboxylic Acid] belongs below 1 µM; to `Cc1nc([C@]2(OCC3CC3)CC[C@](C(=O)O)(c3ccccc3)CC2)n(CC2CC2)c1C` [Example 377], below 1 µM; to `COc1ccc(C2(OC)CCC(C(=O)O)(c3ccccc3)CC2)cc1F` (stereo not drawn) [Example 131], below 1 µM.
The same measure for `O=C(O)[C@]1(c2ccccc2)CC[C@@](OCC2CC2)(c2cc(-c3ccccc3)ccn2)CC1` [Example 485, Cis-4-Cyclopropylmethoxy-1-phenyl-4-(4-phenylpyridin-2-yl)cyclohexanecarboxylic Acid]: below 1 µM; for `COC1(c2ccc(F)cc2)CCC(C(=O)O)(c2cccc(F)c2)CC1` (stereo not drawn) [Example 234]: below 1 µM.
Turning to `CCCOC1(c2ccc(F)cc2)CCC(C(=O)O)(c2ccccc2)CC1` (stereo not drawn) [Example 148], the IC50 was below 1 µM.
Regarding `O=C(O)[C@]1(c2ccccc2)CC[C@](Oc2ccccc2)(c2nc(-c3ccccc3)nn2CC2CC2)CC1` [Example 466], the IC50 was below 1 µM.
To `COC1(c2ccccc2S(C)(=O)=O)CCC(C(=O)O)(c2ccccc2)CC1` (stereo not drawn) [Example 172] belongs below 1 µM.
The same measure for `CCCOC1(c2ccc(F)cc2SC)CCC(C(=O)O)(c2ccc(F)cc2)CC1` (stereo not drawn) [Example 242]: below 1 µM.
The same measure for `COc1ccc(-c2cc([C@]3(OCC4CC4)CC[C@@](C(=O)O)(c4ccccc4)CC3)n(CC3CC3)n2)cc1` [Example 319, Trans-4-Cyclopropylmethoxy-4-[2-cyclopropylmethyl-5-(4-methoxyphenyl)-2H-pyrazol-3-yl]-1-phenylcyclohexanecarboxylic Acid]: below 1 µM.
